Measurements as given in patent US11612606B2, “8-aminoisoquinoline compounds and uses thereof” (priority 2018, dated 2023).
Counter-ions that a name gives are not always drawn.

biological target: HPK full length, T165E S171E (Homo sapiens (Human), UniProt Q92918, S171E/T165E); experiment: HPK1-FL HTRF enzymatic assay ("HTRF"); type: biochemical; settings: ATP 1 mM, read-out: HPK1 Ki
Description: Assay Principle: HPK-FL enzyme phosphorylates Biotin-SLP-76 substrate in the presence of ATP at […] and varying concentrations of test compound. Product is detected by FRET using Eu-anti-pSLP76 Ab and SA-XL665. Also see www.cisbio.com/HTRF for additional HTRF technology information.
Instrumentation: Echo555 compound dispenser; Agilent Bravo; Perkin Elmer Envision.
To a 384 well Proxiplate with 80 nL compound or DMSO spotted on was added 4 μl/well kinase mix. The mixture was preincubated for 30 minutes and then 4 μl/well substrate mix was added. The solution was incubated for 60 min and then 4 μl/well detection mix was added. The solution was incubated for another 60 min.
Exemplary compounds were tested in the HTRF binding assays.

Chain of HPK full length, T165E S171E (Q92918 whole entry T165E/S171E, looked up): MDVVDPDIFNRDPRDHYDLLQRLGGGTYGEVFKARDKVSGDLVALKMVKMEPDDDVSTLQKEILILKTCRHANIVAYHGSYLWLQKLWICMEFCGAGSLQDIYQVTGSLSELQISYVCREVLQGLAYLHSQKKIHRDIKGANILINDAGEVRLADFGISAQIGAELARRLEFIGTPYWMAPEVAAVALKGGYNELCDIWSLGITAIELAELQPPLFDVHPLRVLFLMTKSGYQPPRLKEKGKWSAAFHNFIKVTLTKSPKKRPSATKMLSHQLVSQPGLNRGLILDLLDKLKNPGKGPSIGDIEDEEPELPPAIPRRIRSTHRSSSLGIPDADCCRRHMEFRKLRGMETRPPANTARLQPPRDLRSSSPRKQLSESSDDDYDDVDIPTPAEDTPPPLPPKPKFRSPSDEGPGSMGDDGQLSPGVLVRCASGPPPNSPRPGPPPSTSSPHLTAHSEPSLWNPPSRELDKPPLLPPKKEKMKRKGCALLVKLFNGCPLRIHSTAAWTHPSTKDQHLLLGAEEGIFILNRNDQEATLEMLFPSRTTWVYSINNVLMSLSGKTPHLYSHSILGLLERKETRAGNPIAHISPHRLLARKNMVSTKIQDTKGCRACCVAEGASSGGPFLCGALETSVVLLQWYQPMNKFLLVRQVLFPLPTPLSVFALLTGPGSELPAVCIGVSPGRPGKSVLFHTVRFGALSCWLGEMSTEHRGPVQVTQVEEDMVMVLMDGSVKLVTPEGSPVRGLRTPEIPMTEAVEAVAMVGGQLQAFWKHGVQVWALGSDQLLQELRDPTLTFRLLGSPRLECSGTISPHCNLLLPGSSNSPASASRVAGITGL

Row | SMILES | Ki
1 | CCN1C[C@H](OC(=O)Nc2cc3cc(-c4cnc5c(c4C)NCCO5)c(F)c(N)c3cn2)CC1=O (single isomer, unassigned) [Compound 478a] | 0.25 nM
2 | CCN1C[C@@H](OC(=O)Nc2cc3cc(-c4cnc5c(c4C)NCCO5)c(F)c(N)c3cn2)CC1=O (single isomer, unassigned) [Compound 478b, (5)-1-Ethyl-5-oxopyrrolidin-3-yl (8-amino-7-fluoro-6-(8-methyl-2,3-dihydro-1H-pyrido[2,3-b][1,4]oxazin-7-yl)isoquinolin-3-yl)carbamate] | < 0.013 nM
3 | Cc1c(-c2cc3cc(NC(=O)O[C@H]4CC(=O)N(C(C)C)C4)ncc3c(N)c2F)cnc2c1NCCO2 (single isomer, unassigned) [Compound 479a] | 0.021 nM
4 | Cc1c(-c2cc3cc(NC(=O)O[C@@H]4CC(=O)N(C(C)C)C4)ncc3c(N)c2F)cnc2c1NCCO2 (single isomer, unassigned) [Compound 479b] | < 0.013 nM
5 | Cc1c(-c2cc3cc(NC(=O)O[C@@H]4CN(C)C(=O)C4(C)C)ncc3c(N)c2F)cnc2c1NCCO2 (single isomer, unassigned) [Compound 480a] | 0.034 nM
6 | Cc1c(-c2cc3cc(NC(=O)O[C@H]4CN(C)C(=O)C4(C)C)ncc3c(N)c2F)cnc2c1NCCO2 (single isomer, unassigned) [Compound 480b] | 0.28 nM
7 | Cc1c(-c2cc3cc(NC(=O)O[C@H]4CC(=O)N(C)C4)ncc3c(N)c2F)cnc2c1NCCC2 (single isomer, unassigned) [Compound 481a] | 0.184 nM
8 | Cc1c(-c2cc3cc(NC(=O)O[C@@H]4CC(=O)N(C)C4)ncc3c(N)c2F)cnc2c1NCCC2 (single isomer, unassigned) [Compound 481b] | 0.018 nM
9 | Cc1c(-c2cc3cc(NC(=O)O[C@@H]4Cc5nccn5C4)ncc3c(N)c2F)cnc2c1NCCO2 (single isomer, unassigned) [Compound 504a] | < 0.013 nM
10 | Cc1c(-c2cc3cc(NC(=O)O[C@H]4Cc5nccn5C4)ncc3c(N)c2F)cnc2c1NCCO2 (single isomer, unassigned) [Compound 504b] | 0.76 nM
11 | Cc1c(-c2cc3cc(NC(=O)OC4C5COCC4CN(C(C)C)C5)ncc3c(N)c2F)cnc2c1NCCO2 (single isomer, unassigned) [Compound 506a] | < 0.013 nM
12 | Cc1c(-c2cc3cc(NC(=O)OC4C5COCC4CN(CC(F)F)C5)ncc3c(N)c2F)cnc2c1NCCO2 (single isomer, unassigned) [Compound 507a] | < 0.013 nM
13 | Cc1c(-c2cc3cc(NC(=O)O[C@H]4CCO[C@@H]4C)ncc3c(N)c2F)cnc2c1NCCO2 (single isomer, unassigned) [Compound 510b] | 0.308 nM
14 | Cc1c(-c2cc3cc(NC(=O)O[C@@H]4CCO[C@@H]4C)ncc3c(N)c2F)cnc2c1NCCO2 (single isomer, unassigned) [Compound 510d] | 0.016 nM
15 | Cc1c(-c2cc3cc(NC(=O)O[C@@H]4CCC5(CCN(C6COC6)CC5)C4)ncc3c(N)c2F)cnc2c1NCCO2 (single isomer, unassigned) [Compound 511a] | < 0.013 nM
16 | Cc1c(-c2cc3cc(NC(=O)O[C@H]4CCC5(CCN(C6COC6)CC5)C4)ncc3c(N)c2F)cnc2c1NCCO2 (single isomer, unassigned) [Compound 511b] | 0.017 nM
17 | CC[C@@H]1COC[C@H]1OC(=O)Nc1cc2cc(-c3cnc4c(c3C)NCCO4)c(F)c(N)c2cn1 (single isomer, unassigned) [Compound 515a] | 0.105 nM
18 | CC[C@H]1COC[C@@H]1OC(=O)Nc1cc2cc(-c3cnc4c(c3C)NCCO4)c(F)c(N)c2cn1 (single isomer, unassigned) [Compound 515b] | 0.017 nM
19 | Cc1c(-c2cc3cc(NC(=O)O[C@H]4COC[C@@H]4C4CC4)ncc3c(N)c2F)cnc2c1NCCO2 (single isomer, unassigned) [Compound 516a] | 0.031 nM
20 | Cc1c(-c2cc3cc(NC(=O)O[C@@H]4COC[C@H]4C4CC4)ncc3c(N)c2F)cnc2c1NCCO2 (single isomer, unassigned) [Compound 516b] | < 0.013 nM
21 | Cc1c(-c2cc3cc(NC(=O)O[C@@H]4CCOC4)ncc3c(N)c2F)cnc2c1NC[C@@H](F)O2 (single isomer, unassigned) [Compound 518a] | 0.069 nM
22 | Cc1c(-c2cc3cc(NC(=O)O[C@@H]4CCOC4)ncc3c(N)c2F)cnc2c1NC[C@H](F)O2 (single isomer, unassigned) [Compound 518b] | 0.044 nM
23 | Cc1c(-c2cc3cc(NC(=O)O[C@H](C)CN(C)C)ncc3c(N)c2F)cnc2c1NCCO2 (single isomer, unassigned) [Compound 523a] | 0.85 nM
24 | Cc1c(-c2cc3cc(NC(=O)O[C@@H](C)CN(C)C)ncc3c(N)c2F)cnc2c1NCCO2 (single isomer, unassigned) [Compound 523b, (5)-1-(Dimethylamino)propan-2-yl (8-amino-7-fluoro-6-(8-methyl-2,3-dihydro-1H-pyrido[2,3-b][1,4]oxazin-7-yl)isoquinolin-3-yl)carbamate] | 8.75 nM

Row | SMILES | Ki
25 | Cc1c(-c2cc3cc(NC(=O)O[C@H](C)CO)ncc3c(N)c2F)cnc2c1NCCO2 (single isomer, unassigned) [Compound 530a] | 0.26 nM
26 | Cc1c(-c2cc3cc(NC(=O)O[C@@H](C)CO)ncc3c(N)c2F)cnc2c1NCCO2 (single isomer, unassigned) [Compound 530b, (5)-1-Hydroxypropan-2-yl (8-amino-7-fluoro-6-(8-methyl-2,3-dihydro-1H-pyrido[2,3-b][1,4]oxazin-7-yl)isoquinolin-3-yl)carbamate] | 0.11 nM
27 | Cc1c(-c2cc3cc(NC(=O)OC4CN(C(=O)[C@H]5C[C@@H]5F)C4)ncc3c(N)c2F)cnc2c1NCCC2 (single isomer, unassigned) [Compound 531a] | 0.055 nM
28 | Cc1c(-c2cc3cc(NC(=O)OC4CN(C(=O)[C@@H]5C[C@H]5F)C4)ncc3c(N)c2F)cnc2c1NCCC2 (single isomer, unassigned) [Compound 531b] | 0.152 nM
29 | Cc1c(-c2cc3cc(NC(=O)O[C@@H]4CC[C@@](C)(O)C4)ncc3c(N)c2F)cnc2c1NCCO2 (single isomer, unassigned) [Compound 533a, hydrochloride] | 0.035 nM
30 | Cc1c(-c2cc3cc(NC(=O)O[C@H]4CC[C@](C)(O)C4)ncc3c(N)c2F)cnc2c1NCCO2 (single isomer, unassigned) [Compound 533b, hydrochloride] | 0.059 nM
31 | Cc1c(-c2cc3cc(NC(=O)O[C@H]4CC[C@@](C)(O)C4)ncc3c(N)c2F)cnc2c1NCCO2 (single isomer, unassigned) [Compound 533c, hydrochloride] | 0.014 nM
32 | Cc1c(-c2cc3cc(NC(=O)O[C@@H]4CC[C@](C)(O)C4)ncc3c(N)c2F)cnc2c1NCCO2 (single isomer, unassigned) [Compound 533d, hydrochloride] | 0.015 nM
33 | Cc1c(-c2cc3cc(NC(=O)O[C@@H]4COC[C@H]4C#N)ncc3c(N)c2F)cnc2c1NCCO2 (single isomer, unassigned) [Compound 538a] | 0.058 nM
34 | Cc1c(-c2cc3cc(NC(=O)O[C@H]4COC[C@@H]4C#N)ncc3c(N)c2F)cnc2c1NCCO2 (single isomer, unassigned) [Compound 538b] | 0.016 nM
35 | Cc1c(N)cncc1-c1cc2cc(NC(=O)O[C@H]3COC[C@@H]3C)ncc2c(N)c1F (single isomer, unassigned) [Compound 544a] | 0.138 nM
36 | Cc1c(N)cncc1-c1cc2cc(NC(=O)O[C@@H]3COC[C@H]3C)ncc2c(N)c1F (single isomer, unassigned) [Compound 544b] | 2.7 nM
37 | Cc1c(-c2cc3cc(NC(=O)OC4CN(C(=O)[C@H]5C[C@@H]5F)C4)ncc3c(N)c2F)cnc2c1NCCO2 (single isomer, unassigned) [Compound 545a] | 0.021 nM
38 | Cc1c(-c2cc3cc(NC(=O)OC4CN(C(=O)[C@@H]5C[C@H]5F)C4)ncc3c(N)c2F)cnc2c1NCCO2 (single isomer, unassigned) [Compound 545b] | 0.018 nM
39 | CO[C@@H]1COC[C@H]1OC(=O)Nc1cc2cc(-c3cnc4c(c3C)NCCO4)c(F)c(N)c2cn1 (single isomer, unassigned) [Compound 546b] | 0.051 nM
40 | CCc1c(-c2cc3cc(NC(=O)O[C@H]4COC[C@@H]4C)ncc3c(N)c2F)cnc2c1NCCO2 (single isomer, unassigned) [Compound 555a, hydrochloride] | < 0.013 nM
41 | Cc1c(-c2cc(N)c3cnc(NC(=O)O[C@H]4COC[C@@H]4C)cc3c2)cnc2c1NCCO2 (single isomer, unassigned) [Compound 556a, hydrochloride] | 0.032 nM
42 | Cc1c(-c2cc(N)c3cnc(NC(=O)O[C@@H]4COC[C@H]4C)cc3c2)cnc2c1NCCO2 (single isomer, unassigned) [Compound 556b, hydrochloride] | < 0.013 nM
43 | Cc1c(-c2cc3cc(NC(=O)O[C@H]4COC[C@@H]4C)ncc3c(N)c2F)cnc2c1NC(=O)CO2 (single isomer, unassigned) [Compound 558a, hydrochloride] | 0.9 nM
44 | Cc1c(-c2cc3cc(NC(=O)O[C@@H]4COC[C@H]4C)ncc3c(N)c2F)cnc2c1NC(=O)CO2 (single isomer, unassigned) [Compound 558b, hydrochloride] | 3.75 nM
45 | Cc1c(-c2cc3cc(NC(=O)O[C@@H]4CC[C@@H]4C)ncc3c(N)c2F)cnc2c1NCCO2 (single isomer, unassigned) [Compound 559a] | 0.025 nM
46 | Cc1c(-c2cc3cc(NC(=O)O[C@@H]4CC[C@@H]4C)ncc3c(N)c2F)cnc2c1NCCO2 (single isomer, unassigned) [Compound 559c] | < 0.013 nM
47 | Cc1c(-c2cc3cc(NC(=O)OC4CC(O)C4)ncc3c(N)c2F)cnc2c1NC[C@@H](C)C2 (single isomer, unassigned) [Compound 560a] | 0.019 nM
